According to PMC6251916, “CKD-506, a novel HDAC6-selective inhibitor, improves renal outcomes and survival in a mouse model of systemic lupus erythematosus” (Scientific Reports, 2018):

Assays:
[1] = system: NZB/W F1 female mice; experiment: Murine SLE model: flow cytometry of splenocytes; format: in vivo, mouse
From the text: Single cell suspensions were obtained from the spleens of NZB/W F1 mice at autopsy (at 43–44 weeks of age). The splenocytes were stained with PerCP-Cy5.5-conjugated anti-mouse CD3e (PerCP-cy5.5-CD3e, eBioscience, San Diego, CA, USA), fluorescein isothiocyanate (FITC)-conjugated anti-mouse CD4 (FITC-CD4, BD Biosciences, San Jose, CA, USA), PE-cyanine7-conjugated anti-mouse CD8a (eBioscience), allo-phycocyanin (APC)-conjugated anti-mouse CD25 (BD Biosciences) and PE-conjugated anti-mouse CD138 (BD Biosciences).
T cell profile was analyzed as described previously; briefly, we examined proportions of Th1 cells (CD4^+CD25^+T-bet^+), Th2 cells (CD4^+CD25^+GATA-3^+), Th17 cells (CD4^+CD25^+ROR-γt^+), and Treg cells (CD4^+CD25^+Foxp3^+). To analyze T helper subsets, the splenocytes were stained with antibodies to CD4 and CD25 (FITC-conjugated anti-mouse CD4 and APC-conjugated anti-mouse CD25, BD Biosciences). Cells were fixed and permeabilized prior to staining with T-bet, GATA-3, ROR-γt and Foxp3 antibodies (PE-, BD Biosciences).

[2] = system: NZB/W F1 female mice; experiment: Murine SLE model: serum chemistry and necropsy; conditions: for ALP / ALT / AST / Albumin / CPK / Ca / Total bilirubin / Total protein: serum at autopsy, mean ± SD
Experimental: Control mice received 150 μL of vehicle (Ethanol: Kolliphor® EL: saline = 1:1:8) and were subjected to the same schedule. Survival rate and incidence of severe proteinuria (percent individual mice with urine protein ≥300 mg/dL) were calculated. Survival had been monitored until 42 weeks of age.

[3] = system: THP1-Blue ISG human monocyte cell line; experiment: cGAMP induced IFN promoter activity reporter assay (IRF-inducible SEAP); format: cell-based; conditions: 3 μM; 10 μM cGAMP; 24hr; significant
From the text: Supplementary Figure 2. A representative gating scheme of the T cell subset and CD138+ […]
To analyze T helper subsets, splenocytes were stained with antibodies to CD4 and CD25 (FITC-conjugated anti-mouse CD4 and APC-conjugated anti-mouse CD25, BD Biosciences).
Cells were fixed and permeabilized prior to staining with Foxp3 (Tube 007), ROR-γt (Tube 008), T-bet (Tube 009), and GATA-3 (Tube 010) antibodies (PE-, BD Biosciences).
The splenocytes were stained with PerCP-Cy5.5-conjugated anti-mouse CD3e (PerCP-cy5.5-CD3e, eBioscience, San Diego, CA, USA), fluorescein isothiocyanate (FITC)-conjugated anti-mouse CD4 (FITC-CD4, BD Biosciences, San Jose, CA, USA), PE-cyanine7-conjugated anti-mouse CD8a (eBioscience), and APC-conjugated anti-mouse CD25 (Tube 011).
Unstained control (no antibody, Tube 001), FITC control (FITC-conjugated anti-mouse CD4 only, Tube 002), APC control (APC-conjugated anti-mouse CD25 only, Tube 003), PE control (PE-conjugated anti-mouse CD138 (BD Bioscience) only, Tube 004), and PerCP-Cy5.5 CD3 control (PerCP-Cy5.5-conjugated anti-mouse CD3e only, Tube 005) were also used for gating. cGAMP induced IFN promoter activ ity
Supplementary Figure 3. […]
The SEAP activity in the culture supernatant was measured with Flexstation (Molecular Devices, USA) after incubation with Quanti-Blue solution (InvivoGen, USA) for 15 min. […]

[4] = set-up: method as in EudraCT number: 2016-002816-42; conditions: ref EudraCT number: 2016-002816-42; cited from earlier work
[5] = system: NZB/W F1 female mice; experiment: Murine SLE model: survival, severe proteinuria, UP/C; format: in vivo, mouse; conditions: for Survival rate at the end of the study: 42-weeks of age; for incidence of severe proteinuria (urine protein >300 mg/dl): 42 weeks of age
Experimental: (§1) Survival had been monitored until 42 weeks of age.
During the experiments, urine protein levels had been measured every 2 weeks. Fresh urine was collected by performing abdominal massages. Urine protein was measured with the Coomassie Brilliant Blue method as described in our previous study. Urine creatinine was measured using a DRI-CHEM 3000 Colorimetric analyzer (Fujifilm, Tokyo, Japan) with the urine diluted in deionized water (1:100 dilution).

[6] = system: NZB/W F1 female mice; experiment: Murine SLE model: serum immunoglobulin isotyping; format: in vivo, mouse; conditions: group CKD50
Experimental: as §1
Serum immunoglobulin concentrations were determined with mouse IgG1, IgG2A, IgG2B, IgG3, and IgM Isotyping kits and a mouse Mag Isotyping assay base kit (R&D Systems, Minneapolis, MN). Thirty-fold diluted sera were used for analysis of IgM and IgG2B levels, 6000-fold diluted sera were used for analysis of IgG1 and IgG2A levels and 48,000-fold diluted sera were used for analysis of IgG3 level.

CKD-506
fewer CD4−CD8− cells compared with group vehicle ([1]; group CKD10, spleen): 19.1% | fewer CD138+ cells compared with group vehicle ([1]; group CKD10, spleen): 21.2% | fewer CD4−CD8− cells compared with group vehicle ([1]; group CKD30, spleen): 28.3% | fewer CD138+ cells compared with group vehicle ([1]; group CKD30, spleen): 25.2% | CD4−CD8+ T cells in spleen vs vehicle ([1]; group CKD50): significantly more | percentage of CD25+ cells in spleen vs vehicle ([1]; group CKD50): significantly lower | T-bet expression by CD4+ cells vs vehicle ([1]; group CKD50, spleen): significantly lower | fewer CD4−CD8− cells compared with group vehicle ([1]; group CKD50, spleen): 27.3% | fewer CD138+ cells compared with group vehicle ([1]; group CKD50, spleen): 31.6% | appearance of the spleen, kidneys, liver, lungs, or heart (gross or microscopic examination at necropsy) ([2]; end of experiment): did not result in significant changes | serum ALT relative to reference range ([2]; group CKD50, significantly higher than the other groups): within the reference range | ALP ([2]; group D: CKD-506 10 mg/kg/day): 187.44 ± 62.24 U/l | ALT ([2]; group D: CKD-506 10 mg/kg/day): 18.10 ± 5.43 U/l | AST ([2]; group D: CKD-506 10 mg/kg/day): 44.20 ± 10.09 U/l | Albumin ([2]; group D: CKD-506 10 mg/kg/day): 1.91 ± 0.43 g/dL | CPK ([2]; group D: CKD-506 10 mg/kg/day): 86.70 ± 56.89 U/l | Ca ([2]; group D: CKD-506 10 mg/kg/day): 10.08 ± 1.26 mg/dL | Total bilirubin ([2]; group D: CKD-506 10 mg/kg/day): 0.22 ± 0.09 mg/dL | Total protein ([2]; group D: CKD-506 10 mg/kg/day): 4.74 ± 0.63 g/dL | ALP ([2]; group E: CKD-506 30 mg/kg/day): 155.92 ± 19.94 U/l | ALT ([2]; group E: CKD-506 30 mg/kg/day): 20.79 ± 2.91 U/l | AST ([2]; group E: CKD-506 30 mg/kg/day): 55.21 ± 19.34 U/l | Albumin ([2]; group E: CKD-506 30 mg/kg/day): 2.19 ± 0.43 g/dL | CPK ([2]; group E: CKD-506 30 mg/kg/day): 84.71 ± 31.40 U/l | Ca ([2]; group E: CKD-506 30 mg/kg/day): 9.65 ± 0.69 mg/dL | Total bilirubin ([2]; group E: CKD-506 30 mg/kg/day): 0.26 ± 0.12 mg/dL | Total protein ([2]; group E: CKD-506 30 mg/kg/day): 5.21 ± 0.71 g/dL | ALP ([2]; group F: 50 mg/kg/day): 153.08 ± 17.25 U/l | ALT ([2]; group F: 50 mg/kg/day): 29.07 ± 12.21 U/l | AST ([2]; group F: 50 mg/kg/day): 59.00 ± 56.14 U/l | Albumin ([2]; group F: 50 mg/kg/day): 2.26 ± 0.35 g/dL | CPK ([2]; group F: 50 mg/kg/day): 125.86 ± 177.18 U/l | Ca ([2]; group F: 50 mg/kg/day): 9.43 ± 0.59 mg/dL | Total bilirubin ([2]; group F: 50 mg/kg/day): 0.28 ± 0.14 mg/dL | Total protein ([2]; group F: 50 mg/kg/day): 5.35 ± 0.60 g/dL | cGAMP induced IFN promoter activity [3]: repressed | safety in phase I clinical trial [4]: did not reveal significant safety issues | Survival rate at the end of the study ([5]; group CKD10: 10 mg/kg/day i.p.): 73.3% | incidence of severe proteinuria (urine protein >300 mg/dl) ([5]; group CKD10: 10 mg/kg/day i.p.): 13.3% | Survival rate at the end of the study ([5]; group CKD30: 30 mg/kg/day i.p.): 93.3% | incidence of severe proteinuria (urine protein >300 mg/dl) ([5]; group CKD30: 30 mg/kg/day i.p.): 6.7% | Survival rate at the end of the study ([5]; group CKD50: 50 mg/kg/day i.p.): 93.3% | incidence of severe proteinuria (urine protein >300 mg/dl) ([5]; group CKD50: 50 mg/kg/day i.p.): 0% | urine protein/urine creatinine (UP/C) ([5]; group CKD50, 42 weeks, not significantly different from other groups): lowest UP/C mean value | serum levels of IgM vs vehicle [6]: significantly lower
